Key:
[1] = system: human adipose tissue-derived mesenchymal stem cells (hATMSCs); assay: Cell viability by CCK-8 analysis, hATMSCs; format: cell-based; details: FIG. 2; for influence on cell viability: all the concentrations (50, 100, 200, 400 μM); for cell viability: concentration of 100 μM
Description: (§1) In Example 2, influence of a sialyloligosaccharide on cell viability of stem cells was to be confirmed. Particularly, 3′-sialyllactose, 6′-sialyllactose, and a combination thereof were each treated on the subcultured stem cells in a concentration of 0, 50, 100, 200, or 400 μM, and the cell viability per concentration was verified by cell counting kit-8 (CCK-8) analysis. In particular, of hBMSCs, hATMSCs, and hCBMSCs were seeded in a 96-well plate. Then, the stem cells were treated with 3′-sialyllactose (GeneChem), 6′-sialyllactose (GeneChem), and a mixture of 3′-sialyllactose and 6′-sialyllactose in a concentration of 0, 50, 100, 200, or 400 μM and cultured in a DMEM low glucose medium (HyClone) including 1% antibiotics free of fetal bovine serum (T&I). Next, the viabilities of the cultured cells were confirmed by CCK-8 (Dojindo Laboratories, Kumamoto, Japan) analysis.

[2] = system: human bone marrow-derived mesenchymal stem cells (hBMSCs); assay: Cell viability by CCK-8 analysis, hBMSCs; format: cell-based; details: FIG. 1; for influence on cell viability: all the concentrations (50, 100, 200, 400 μM); for cell viability: concentration of 100 μM
Description: as §1

[3] = system: induced pluripotent stem cells-derived hepatic organoids; assay: Cell viability of hepatic organoids by CCK analysis; format: cell-based; details: concentrations of 0.1, 1, 10, and 100 μM for 6 days, 7th day, FIG. 10
Source text: (§2) In Example 1, human bone marrow-derived mesenchymal stem cells (hBMSCs), human adipose tissue-derived mesenchymal stem cells (hATMSCs), human cord blood-derived mesenchymal stem cells (hCBMSCs), and induced pluripotent stem cells-derived hepatic organoid were used in this experiment. Dulbecco's Modified Eagle's Mediums (DMEM Low Glucose, available from HyClone in Logan, Utah, USA) including 10% fetal bovine serum (available from T&I in Gangwon, Korea), 1% antibiotics (penicillin/streptomycin, available from Gibco in Grand Island, NY, USA) were used as culture mediums of hBMSCs, hATMSCs, and hCBMSCs. After treating 3′-sialyllactose (available from GeneChem), 6′-sialyllactose (available from GeneChem), and a mixture of 3′-sialyllactose and 6′-sialyllactose, each in an amount of 100 μM, the culturing solutions were replaced every 3 days. The negative control was performed in the same manner after adding triple distilled water into the culturing solution. Also, a Hepatocyte Culture Medium (available from Lonza) including an endothelial cell growth medium-2 (available from Lonza), 2.5% FBS, 100 nM dexamethasone (available from Sigma-Aldrich), 20 ng/ml OSM (available from R&D system), and 10 ng/ml HGF (available from PeproTech) was used as the culturing solution of hepatic organoid, and the culturing solution was replaced every 3 days. […]

[4] = system: hBMSCs; assay: Stemness markers OCT4, SOX2, NANOG by qRT-PCR and western blot, hBMSCs; format: cell-based, human; details: 100 μM, compared to stem cells cultured without a sialyllactose, FIG. 4
Source text: (§3) In Example 1, human bone marrow-derived mesenchymal stem cells (hBMSCs), human adipose tissue-derived mesenchymal stem cells (hATMSCs), human cord blood-derived mesenchymal stem cells (hCBMSCs), and induced pluripotent stem cells-derived hepatic organoid were used in this experiment. Dulbecco's Modified Eagle's Mediums (DMEM Low Glucose, available from HyClone in Logan, Utah, USA) including 10% fetal bovine serum (available from T&I in Gangwon, Korea), 1% antibiotics (penicillin/streptomycin, available from Gibco in Grand Island, NY, USA) were used as culture mediums of hBMSCs, hATMSCs, and hCBMSCs. After treating 3′-sialyllactose (available from GeneChem), 6′-sialyllactose (available from GeneChem), and a mixture of 3′-sialyllactose and 6′-sialyllactose, each in an amount of 100 μM, the culturing solutions were replaced every 3 days. The negative control was performed in the same manner after adding triple distilled water into the culturing solution. Also, a Hepatocyte Culture Medium (available from Lonza) including an endothelial cell growth medium-2 (available from Lonza), 2.5% FBS, 100 nM dexamethasone (available from Sigma-Aldrich), 20 ng/ml OSM (available from R&D system), and 10 ng/ml HGF (available from PeproTech) was used as the culturing solution of hepatic organoid, and the culturing solution was replaced every 3 days.
(§4) In Example 3, influence of a sialyloligosaccharide on stemness of stem cells was to be confirmed. Particularly, after treating mesenchymal stem cells with each of 3′-sialyllactose, 6′-sialyllactose, and a combination thereof, mRNAs of OCT4, SOX2, and NANOG, which are stem cell markers of the mesenchymal stem cells, and changes in expression at protein levels were each measured by quantitative real-time reverse transcription-polymerase chain reaction (qRT-PCR) and western blot. In particular, total RNAs were isolated from the cells collected after culturing the cells in the same manner as in Example 1, and change in mRNA expression of the isolated total RNAs was confirmed by qRT-PCR using OCT4 primers available from Bioneer (Daejeon, Korea), SOX2 primers available from Bioneer (P200205), and NANOG primers.

[5] = system: hBMSCs; assay: Proliferation genes CCNA2 and CDK2 expression by qRT-PCR; format: cell-based, human; details: hBMSCs having low proliferation ability, 100 μM, mRNA, FIG. 8
Source text: as §2

[6] = system: hCBMSCs; assay: Stemness markers OCT4, SOX2, NANOG by qRT-PCR and western blot, hCBMSCs; format: cell-based, human; details: 100 μM, compared to stem cells cultured without a sialyllactose, FIG. 6
Source text: as §3, §4

[7] = system: hBMSCs; assay: Cell viability per subculturing passage by CCK-8; format: cell-based, human; details: hBMSCs subcultured for 4, 7, 10, and 12 passages, 100 μM, FIG. 9
Description: In Example 6, influence of a sialyloligosaccharide on viability of stem cells according to cell subculturing passages was to be confirmed. Particularly, hBMSCs subcultured for 4, 7, 10, and 12 passages were treated with 3′-sialyllactose in a concentration of 100 μM, and the cell viability was confirmed by cell counting kit-8 assay (CCK-8) analysis. In particular, the hBMSCs were seeded in a 96-well plate. Then, the stem cells were treated with 3′-sialyllactose (GeneChem) in a concentration of 100 μM and cultured in a DMEM low glucose medium (HyClone) including 1% antibiotics free of fetal bovine serum (T&I). Viabilities of the cultured cells were confirmed by the CCK-8 analysis.

[8] = system: human cord blood-derived mesenchymal stem cells (hCBMSCs); assay: Cell viability by CCK-8 analysis, hCBMSCs; format: cell-based; details: FIG. 3; for influence on cell viability: all the concentrations (50, 100, 200, 400 μM); for cell viability: concentration of 100 μM
Description: as §1

[9] = system: hBMSCs; assay: Senescence-associated beta-galactosidase (SA-β-gal) staining; format: cell-based, human; details: hBMSCs of 10 passages, 100 μM, versus without treatment, FIG. 7C
Description: Also, in order to confirm a degree of senescence of the stem cells after being treated with 3′-sialyllactose (GeneChem), senescence-associated beta-galactosidase staining was performed on hBMSCs of 10 passages, treated with 100 μM of 3′-sialyllactose. In particular, after fixing the cells in formalin, the resultant washed with PBS, and 1 mg/mL of a β-gal staining solution X-Gal, 40 mM of a citric acid-sodium phosphate buffer solution, 150 mM of NaCl, 2 mM of MgCl2, 5 mM of potassium ferrocyanide, and 5 mM of potassium ferricyanide (pH 6.0, available from Sigma-Aldrich, St. Louis, USA) were add to the resultant and reacted at 37° C. Then, degrees of senescence activity of the aged cells (blue, positive) and cells not showing activity of senescence (negative) were confirmed using Eclipse TS100 (available from Nikon USA, Melville, N.Y., USA).

[10] = system: hATMSCs; assay: Stemness markers OCT4, SOX2, NANOG by qRT-PCR and western blot, hATMSCs; format: cell-based, human; details: 100 μM, compared to stem cells cultured without a sialyllactose, FIG. 5
Source text: as §3, §4

[11] = system: hBMSCs; assay: Cell senescence factors p16 and p53 by qRT-PCR and Western Blot after subculturing; format: cell-based, human; details: hBMSCs subcultured, 100 μM, versus without treatment, FIG. 7
Source text: as §2, with “solution.” for “solution. Also, a Hepatocyte Culture Medium (available from Lonza) including an endothelial cell growth medium-2 (available from Lonza), 2.5% FBS, 100 nM dexamethasone (available from Sigma-Aldrich), 20 ng/ml OSM (available from R&D system), and 10 ng/ml HGF (available from PeproTech) was used as the culturing solution of hepatic organoid, and the culturing solution was replaced every 3 days.”
In Example 4, influence of a sialyloligosaccharide on senescence of stem cells was to be confirmed. Particularly, after treating the hBMSC stem cells with 3′-sialyllactose, changes in expression at mRNA and protein levels of p16 and p53, which are cell senescence factors after subculturing were each measured by qRT-PCT and Western Blot. […]

[12] = system: induced pluripotent stem cells-derived hepatic organoids; assay: Metabolic maturity of hepatic organoids, mRNA expression ratios by qRT-PCR; format: cell-based; details: 6 days; for ratios of ALB/AFP: FIG. 12
Source text: as §3
In Example 8, influence of a sialyloligosaccharide on maturity of induced pluripotent stem cells-derived hepatic organoids was to be confirmed. Particularly, after subculturing the hepatic organoids, the organoids were stabilized in a hepatic medium (HM) for a day and treated with 3′-sialyllactose and 6′-sialyllactose in concentrations of 0, 0.1, 1, 10, and 100 μM for 6 days, and then total RNAs were isolated from the hepatic organoids on the 7th day. The changes in expressions at mRNA level of CYP3A4, CYP2A7, ALB, and AFP, which are markers of metabolic maturity, were each measured by qRT-PCR, and the expression ratios were compared to confirm the metabolic maturity.

Compound	influence on cell viability [1]	cell viability [1]	influence on cell viability [2]	cell viability [2]	cell viability of hepatic organoids [3]	expression at mRNA and protein levels of NANOG [4]	expression at mRNA and protein levels of OCT4 [4]	expression at mRNA and protein levels of SOX2 [4]	expression at mRNA and protein levels of NANOG [6]	expression at mRNA and protein levels of OCT4 [6]	expression at mRNA and protein levels of SOX2 [6]	influence on cell viability [8]	cell viability [8]	expression at mRNA and protein levels of NANOG [10]	expression at mRNA and protein levels of OCT4 [10]	expression at mRNA and protein levels of SOX2 [10]	other results
CC(=O)N[C@H]1[C@H]([C@H](O)[C@H](O)CO)O[C@@](O[C@H]2[C@@H](O)[C@@H](CO)O[C@@H](O[C@H]3[C@H](O)[C@@H](O)C(O)O[C@@H]3CO)[C@@H]2O)(C(=O)O)C[C@@H]1O (some centres unmarked) [3′-sialyllactose]	did not negatively influence the cell viability	increased significantly	did not negatively influence the cell viability	increased significantly	significantly increased	significantly increased	significantly increased	significantly increased	significantly increased	significantly increased	significantly increased	did not negatively influence the cell viability	increased significantly	significantly increased	significantly increased	significantly increased	expression of CCNA2 [5]: significantly increased; expression of CDK2 [5]: significantly increased; cell viability [7]: significantly increased; SA-β-gal activity [9]: low SA-β-gal activity; expression at mRNA and protein levels of p16 [11]: very low expression; expression at mRNA and protein levels of p53 [11]: very low expression; ratios of ALB/AFP ([12]; concentrations of 1, 10, and 100 μM): significantly increased; ratios of CYP3A4/CYP3A7 ([12]; concentrations of 1 and 10 μM, FIG. 11): significantly increased
CC(=O)N[C@H]1[C@H]([C@H](O)[C@H](O)CO)O[C@@](OC[C@H]2O[C@@H](O[C@H]3[C@H](O)[C@@H](O)[C@H](O)O[C@@H]3CO)[C@H](O)[C@@H](O)[C@H]2O)(C(=O)O)C[C@@H]1O [6′-sialyllactose]	did not negatively influence the cell viability	increased significantly	did not negatively influence the cell viability	increased significantly	significantly increased	significantly increased	significantly increased	significantly increased	significantly increased	significantly increased	significantly increased	did not negatively influence the cell viability	increased significantly	significantly increased	significantly increased	significantly increased	ratios of ALB/AFP ([12]; concentrations of 0.1 and 100 μM): significantly increased
